Reference: US20240228493A1, “LRRK2 INHIBITORS AND USES THEREOF” (NEURON23, ICN., priority 2022, published 2024)

Columns and labels:
human hepatocyte = test: Human hepatocyte stability, predicted hepatic clearance (h-Hept CL predict); type: in vitro ADME; conditions: human hepatocytes, 0.5×10^6 cells/mL, 1 μM, values without asterisk
Method: The compounds disclosed herein were tested in vitro on human hepatocyte for in vitro h-Hept CL predict according to the following procedures. • 1. Compound sock solutions were prepared by dissolving test compound and positive control in dimethyl sulfoxide (DMSO) at a concentration of 10 mM. Stock solutions were then diluted to 100 μM solutions by combining 198 μL of 50% acetonitrile/50% water with 2 μL of the 10 mM stock in separate conical tubes. • 2. Cryopreserved hepatocytes were prepared as follows: Incubation medium (William's E Medium supplemented with GlutaMAX) and hepatocyte thawing medium were placed in a 37° C. water bath and allowed to warm for at least 15 minutes prior to use. Cryopreserved hepatocytes were removed from storage, ensuring that vials remained at cryogenic temperatures until thawed. Cells were thawed by placing the vials in a 37° C. water bath and gently shaking the vials for 2 minutes. After thawing was completed, vials were sprayed with 70% ethanol and transferred to a biosafety cabinet. Hepatocytes were transferred into 50 mL conical tube containing thawing medium using wide-bore pipette tips. Tubes were placed into a centrifuge and spun at 100 g for 10 minutes. Then thawing medium was aspirated and hepatocytes were resuspended in enough incubation medium to yield ˜1.5×10^6 cells/mL. Cells were counted using acridine orange and propidium iodide (AO/PI) staining, and the viable cell density was determined. Cells were diluted with incubation medium to a working cell density of 0.5×10^6 viable cells/mL. • 3. To determine hepatocyte stability, 198 μL of hepatocytes were transferred into each well of a 96-well non-coated plate. Plates were placed in an incubator to allow the hepatocytes to warm for 10 minutes. • 4. The reaction was started by transferring 2 μL of the 100 μM test compound or positive control solution into respective wells of the 96-well non-coated plates. Plates were returned to the incubator until 25 μL aliquots of well contents were sampled at time points of 0, 15, 30, 60, 90 and 120 minutes. The aliquots were then mixed with 6 volumes (150 μL) of acetonitrile containing internal standard, IS (100 nM alprazolam, 200 nM caffeine and 100 nM tolbutamide) to terminate the reaction and vortexed for 5 minutes. After centrifuging the samples for 45 minutes at 3,220 g, aliquots of 100 μL of the supernatant were taken and diluted with 100 μL of ultra-pure water. The mixture was used for LC/MS/MS analysis. All incubations were performed in duplicate.
All calculations were carried out using Microsoft Excel. Peak area ratios (PAR) were determined from extracted ion chromatograms. The in vitro half-life (t1/2) of parent compound was determined by regression analysis of the percent parent disappearance vs. time curve as follows:
Conversion of the in vitro t1/2 (in minutes) into the in vitro intrinsic clearance (in vitro CLint, in μL/min/1×10^6 cells) was done using the following equation (mean of duplicate determinations): […]
The scaled-up intrinsic clearance (CLint, mL/min/kg), predicted hepatic clearance (CLH, mL/min/kg) and hepatic extraction ratio (ER) were calculated using the following equations:
CLint=(0.693/t1/2)*(1/(hepatocyte concentration (0.5*10^6 cells/mL)))*scaling factors (Table (A) Appendix Table 1)
CLHept-predict=(QH*Scaled-up CLint*fub)/(QH+Scaled-up CLint*fub)
ER=CLH/QH • Where: • V=incubation volume (0.2 mL) • N=number of hepatocytes per well (0.1*10^6 cells) • QH=hepatic blood flow (mL/min/kg) (Table (A) Appendix Table 1) • fub=fraction of unbound drug in plasma, assumed to be 1

[1] = target: T1, wt human LRRK2, catalytic site (Homo sapiens, UniProt Q5S007); test: TR-FRET LanthaScreen Tb Kinase Activity Assay, LRRK2 inhibition; type: biochemical; conditions: 2 nM wt human LRRK2, 400 nM peptide, 38 μM ATP
T1 construct: wt human LRRK2, catalytic site, catalytic site (ThermoFisher/USA); purchased ThermoFisher
Method: The compounds disclosed herein were tested for their inhibitory effect on LRRK2 kinase according to the following procedures.
The protocol for basic TR-FRET LanthaScreen Tb Kinase Activity Assay inhibitor studies were as follows. LanthaScreen Kinase Activity Assays (ThermoFisher/USA) to evaluate inhibitors were performed by addition of 100 nL of test compound in corresponding DMSO dilutions/5 μL of kinase/fluorescein-ERM (LRRKtide) peptide mixture, Compound & kinase were pre-incubated for 15 minutes, then 5 μl of ATP into 384 well small volume plates. After incubation for 120 minutes at room temperature, the detection reagents containing Tb-anti-pLRRKtide antibody were added to monitor phosphorylation level of peptide. Then, after 60 min minutes incubation at room temperature plates were read in Envision. Data analysis of emission ratios was according to LanthaScreen Tb Kinase Activity Assay protocol.
Kinase and assay components were adjusted to final concentrations according to the kit protocol. For LRRK2: 2 nM wt human LRRK2, catalytic site, catalytic site (ThermoFisher/USA), 400 nM peptide, 38 μM ATP in 1× Kinase Buffer A. […]
Kinase and assay components were adjusted to final concentrations according to the kit protocol.

Caco-2 cells = test: Caco-2 bidirectional permeability; type: in vitro ADME; conditions: for Caco-2 ER: Efflux Ratio=Papp(BA)/Papp(AB); for Caco-2 A2B (10^−6 cm/s): apical to basolateral; for Caco-2 A2B (10^−6 cm/s) / Caco-2 B2A (10^−6 cm/s): 2 hours, pH 7.4; for Caco-2 B2A (10^−6 cm/s): basolateral to apical
Method: The compounds disclosed herein were tested in vitro on CaCo2 cell penetration according to the following procedures.
Caco-2 cells purchased from ATCC were seeded onto […] (PET) in 96-well Corning Insert plates at 1×10^5 cells/cm^2. The media were refreshed every 4 to 5 days until the 21st to 28th day for confluent cell monolayer formation.
Experiments were run in duplicate using a HBSS transport buffer containing 10 mM HEPES at pH 7.4. The test article TEST COMPOUND was tested bi-directionally at […] concentrations, the control compound digoxin was tested bi-directionally at 10 μM, and nadolol and metoprolol were tested at 2.0 μM in the A to B direction. Final DMSO concentrations were adjusted to less than 1%. The plates were incubated for 2 hours in a CO2 incubator at 37±1° C. with 5% CO2 at saturated humidity without shaking. Following incubation, samples were mixed with acetonitrile containing internal standard and centrifuged at 3200×g for 10 minutes. Then 200 μL of supernatant was taken from all samples. For TEST COMPOUND and digoxin, the supernatant was diluted with 200 μL of ultra-pure water and for nadolol and metoprolol, the supernatant was diluted with 600 μL of ultra-pure water. All samples were analyzed by LC-MS/MS. Concentrations of TEST COMPOUND and control compounds were determined in starting solutions, donor well solutions, and receiver well solutions using peak area ratios (PAR) of analyte to internal standard. After the transport assay, a lucifer yellow rejection assay was run to determine the Caco-2 cell monolayer integrity.
The apparent permeability (Papp), the % recovery and the efflux ratio were calculated as follows:
Papp=(dCr/dt)×Vr/(A×C0) 1.
Efflux Ratio=Papp(BA)/Papp(AB) 3. • Where: • dCr/dt is the slope of the cumulative concentration in the receiver compartment versus time (mM/s). • Vr and Vd is the volume in the receiver and donor compartments (0.075 mL on the apical side, 0.25 mL on the basolateral side), respectively. • A is the surface area of the cell monolayer (0.0804 cm^2). • C0 is the measured donor concentrations (μM) at the beginning of the experiment. • Cd and Cr are the final measured concentrations in the donor and receiver compartments, respectively.

T1 sequence (Q5S007 1879-2138 limits assumed): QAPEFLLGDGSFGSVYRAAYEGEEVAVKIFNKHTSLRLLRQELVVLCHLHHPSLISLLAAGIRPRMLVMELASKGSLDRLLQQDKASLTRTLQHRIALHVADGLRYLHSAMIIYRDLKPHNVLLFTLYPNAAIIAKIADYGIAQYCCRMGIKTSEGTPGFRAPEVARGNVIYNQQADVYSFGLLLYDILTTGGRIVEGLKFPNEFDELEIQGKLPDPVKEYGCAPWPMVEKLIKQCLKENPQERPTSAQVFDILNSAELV

IC50 [1] [nM]	Caco-2 ER (Caco-2 cells)	Caco-2 B2A (10^−6 cm/s) (Caco-2 cells)	Compound	hHep Cl (mL/min/kg) (human hepatocyte)	Caco-2 A2B (10^−6 cm/s) (Caco-2 cells)
< 1	L (L (Likely)”: ER≥2.5)	H (H (High permeability)”: A2B (B2A)>5)	Cc1n[nH]c2c1N=C(c1c(F)cccc1F)Nc1cnc(N3CCC[C@](C)(C#N)C3)cc1-2 (single isomer, unassigned) [Example 13]	I (I (Intermediate Cl)”: 6.3≤Hep Cl (mL/min/kg)≤14.7)	M (M (Moderate permeability)”: 1≤A2B (B2A)≤5)
< 1	L (L (Likely)”: ER≥2.5)	H (H (High permeability)”: A2B (B2A)>5)	Cc1n[nH]c2c1N=C(c1c(F)cccc1F)Nc1cnc(N3CCN(CCF)CC3)cc1-2 [Example 1, 8-(2,6-difluorophenyl)-13-[4-(2-fluoroethyl)piperazin-1-y1]-5-methyl-3,4,7,9,12-pentazatricyclo[8.4.0.02,6]tetradeca-1(10),2(6),4,7,11,13-hexaene]	I (I (Intermediate Cl)”: 6.3≤Hep Cl (mL/min/kg)≤14.7)	M (M (Moderate permeability)”: 1≤A2B (B2A)≤5)
< 1	L (L (Likely)”: ER≥2.5)	H (H (High permeability)”: A2B (B2A)>5)	Cc1n[nH]c2c1N=C(c1c(F)cccc1F)Nc1cnc(N3CCNC4(COC4)C3)cc1-2 [Example 7, 8-[8-(2,6-difluorophenyl)-5-methyl-3,4,7,9,12-pentazatricyclo[8.4.0.02,6]tetradeca-1(10),2(6),4,7,11,13-hexaen-13-y1]-2-oxa-5,8-diazaspiro[3.5]nonane]	L (L (Low Cl)”: Hep Cl (mL/min/kg)<6.3)	L (L (Low permeability)”: A2B (B2A)<1)
< 1	L (L (Likely)”: ER≥2.5)	H (H (High permeability)”: A2B (B2A)>5)	Cc1n[nH]c2c1N=C(c1c(F)cccc1F)Nc1cnc(N3CCN(C)CC3)cc1-2 [Example 8, 8-(2,6-difluorophenyl)-5-methyl-13-(4-methylpiperazin-1-y1)-3,4,7,9,12-pentazatricyclo[8.4.0.02,6]tetradeca-1(10),2(6),4,7,11,13-hexaene]	L (L (Low Cl)”: Hep Cl (mL/min/kg)<6.3)	M (M (Moderate permeability)”: 1≤A2B (B2A)≤5)
1 to 100	L (L (Likely)”: ER≥2.5)	H (H (High permeability)”: A2B (B2A)>5)	Cc1n[nH]c2c1N=C(c1c(F)cccc1F)Nc1cnc(N3CCCOCC3)cc1-2 [Example 9, 4-[8-(2,6-difluorophenyl)-5-methyl-3,4,7,9,12-pentazatricyclo[8.4.0.02,6]tetradeca-1(10),2(6),4,7,11,13-hexaen-13-y1]-1,4-oxazepane]	L (L (Low Cl)”: Hep Cl (mL/min/kg)<6.3)	M (M (Moderate permeability)”: 1≤A2B (B2A)≤5)
1 to 100	L (L (Likely)”: ER≥2.5)	H (H (High permeability)”: A2B (B2A)>5)	Cc1n[nH]c2c1N=C(c1c(F)cccc1F)Nc1cnc(N3CCNCC3)cc1-2 [Example 10, 8-(2,6-difluorophenyl)-5-methyl-13-piperazin-1-yl-3,4,7,9,12-pentazatricyclo[8.4.0.02,6]tetradeca-1(10),2(6),4,7,11,13-hexaene]	L (L (Low Cl)”: Hep Cl (mL/min/kg)<6.3)	L (L (Low permeability)”: A2B (B2A)<1)
< 1	L (L (Likely)”: ER≥2.5)	H (H (High permeability)”: A2B (B2A)>5)	CCS(=O)(=O)N1CCN(c2cc3c(cn2)NC(c2c(F)cccc2F)=Nc2c(C)n[nH]c2-3)CC1 [Example 11, 8-(2,6-difluorophenyl)-13-(4-ethylsulfonylpiperazin-1-y1)-5-methyl-3,4,7,9,12-pentazatricyclo[8.4.0.02, 6]tetradeca-1(10),2(6),4,7,11,13-hexaene]	I (I (Intermediate Cl)”: 6.3≤Hep Cl (mL/min/kg)≤14.7)	L (L (Low permeability)”: A2B (B2A)<1)

Compound	IC50 [1] [nM]	Caco-2 ER (Caco-2 cells)	Caco-2 B2A (10^−6 cm/s) (Caco-2 cells)	hHep Cl (mL/min/kg) (human hepatocyte)	Caco-2 A2B (10^−6 cm/s) (Caco-2 cells)
Cc1n[nH]c2c1N=C(c1c(F)cccc1F)Nc1cnc(N3CCO[C@@]4(CCOC4)C3)cc1-2 (single isomer, unassigned) [Example 3]	< 1	L (L (Likely)”: ER≥2.5)	H (H (High permeability)”: A2B (B2A)>5)	L (L (Low Cl)”: Hep Cl (mL/min/kg)<6.3)	M (M (Moderate permeability)”: 1≤A2B (B2A)≤5)
Cc1n[nH]c2c1N=C(c1c(F)cccc1F)Nc1cnc(N3CCO[C@]4(CCOC4)C3)cc1-2 (single isomer, unassigned) [Example 4]	< 1	L (L (Likely)”: ER≥2.5)	H (H (High permeability)”: A2B (B2A)>5)	L (L (Low Cl)”: Hep Cl (mL/min/kg)<6.3)	M (M (Moderate permeability)”: 1≤A2B (B2A)≤5)
Cc1n[nH]c2c1N=C(c1c(F)cccc1F)Nc1cnc(N3CCOC4(COC4)C3)cc1-2 [Example 5, 8-[8-(2,6-difluorophenyl)-5-methyl-3,4,7,9,12-pentazatricyclo[8.4.0.02,6]tetradeca-1(10),2(6),4,7,11,13-hexaen-13-y1]-2,5-dioxa-8-azaspiro[3.5]nonane]	< 1	L (L (Likely)”: ER≥2.5)	H (H (High permeability)”: A2B (B2A)>5)	L (L (Low Cl)”: Hep Cl (mL/min/kg)<6.3)	L (L (Low permeability)”: A2B (B2A)<1)
